Peptide text beside a SMILES is read from it.
Legend:
[1] = tested on: noncancer HDMEC primary cells (human dermal microvascular endothelial cells); test: Cell viability assay (MTT); format: cell-based; conditions: for EC50: Table S2, noncancer primary cells, MTT, 24 h, mean ± sd, N = 2 independent measurements with six technical replicates each (Figs S6-S8)
Summary of the method: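 Viability by MTT: 10^4 cells/well exposed 24 h to 2-fold peptide dilutions from 100 μM in DMEM, then 1 h with 0.5 mg mL−1 MTT; absorbance at 540 nm relative to peptide-free medium as 100% survival. EC50 from a 3-parameter log-logistic fit.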

[2] = tested on: Colon cancer cell lines; test: NCI-60 screening, average of cancer type; format: cell-based, human; conditions: for log GI50: Table 5, Colon, averaged over cell lines, 48 h, sulforhodamine B, 10^-4 to 10^-8 M; for Log GI (M): Table S3, Colon, averaged activity for the cancer type, log GI50
Experimental: (§1) NCI-60 screening procedure
(§2) The NCI-60 screening procedure was performed by the Developmental Therapeutics Program of the National Cancer Institute. The procedure was performed as previously described24 in 96-well microtiter plates. Each peptide was tested in a 5-concentration assay, starting at 10^-4 M and diluting 10-fold to the lowest 10^-8 M concentration. The peptides were incubated for 48 h and the cell concentration was assayed by using the sulforhodamine B assay25 and optical density measurements. The growth inhibition (GI50) value24, measures the growth inhibitory power of the drug agent. The GI50 value is the concentration of the test drug for which the condition in Eq. S1 is met, where T is the optical density of the test well after a 48-h exposure to the peptide, T0 the optical density before applying the peptide drug and C the control optical density of a well where no peptide was applied.

[3] = tested on: Melanoma cell lines; test: NCI-60 screening, average of cancer type; format: cell-based, human; conditions: for log GI50: Table 5, Melanoma, averaged over cell lines, 48 h, sulforhodamine B, 10^-4 to 10^-8 M; for Log GI (M): Table S3, Melanoma, averaged activity for the cancer type, log GI50
Experimental: as §1, §2

[4] = tested on: Lung cancer cell lines; test: NCI-60 screening, average of cancer type; format: cell-based, human; conditions: for log GI50: Table 5, Lung, averaged over cell lines, 48 h, sulforhodamine B, 10^-4 to 10^-8 M; for Log GI (M): Table S3, Lung, averaged activity for the cancer type, log GI50
Experimental: as §1, §2

[5] = tested on: Leukemia cell lines; test: NCI-60 screening, average of cancer type; format: cell-based, human; conditions: for log GI50: Table 5, Leukemia, averaged over cell lines, 48 h, sulforhodamine B, 10^-4 to 10^-8 M; for Log GI (M): Table S3, Leukemia, averaged activity for the cancer type, log GI50
Experimental: as §1, §2

[6] = tested on: Ovarian cancer cell lines; test: NCI-60 screening, average of cancer type; format: cell-based, human; conditions: for log GI50: Table 5, Ovarian, averaged over cell lines, 48 h, sulforhodamine B, 10^-4 to 10^-8 M; for Log GI (M): Table S3, Ovarian, averaged activity for the cancer type, log GI50
Experimental: as §1, §2

[7] = tested on: Breast cancer cell lines; test: NCI-60 screening, average of cancer type; format: cell-based, human; conditions: for log GI50: Table 5, Breast, averaged over cell lines, 48 h, sulforhodamine B, 10^-4 to 10^-8 M; for Log GI (M): Table S3, Breast, averaged activity for the cancer type, log GI50
Experimental: as §1, §2

[8] = tested on: Renal cancer cell lines; test: NCI-60 screening, average of cancer type; format: cell-based, human; conditions: for log GI50: Table 5, Renal, averaged over cell lines, 48 h, sulforhodamine B, 10^-4 to 10^-8 M; for Log GI (M): Table S3, Renal, averaged activity for the cancer type, log GI50
Experimental: as §1, §2

[9] = tested on: Prostate cancer cell lines; test: NCI-60 screening, average of cancer type; format: cell-based, human; conditions: for log GI50: Table 5, Prostate, averaged over cell lines, 48 h, sulforhodamine B, 10^-4 to 10^-8 M; for Log GI (M): Table S3, Prostate, averaged activity for the cancer type, log GI50
Experimental: as §1, §2

| SMILES | EC50 value against the noncancer HDMEC primary cell line (in words) ([1]; Fig. 1d, compared with the EC50 against cancer cell lines, N = 3) | EC50 [1] [µM] | log GI50 [2] [M] | Log GI (M) [2] [M] | log GI50 [3] [M] | Log GI (M) [3] [M] | log GI50 [4] [M] | Log GI (M) [4] [M] | log GI50 [5] [M] | Log GI (M) [5] [M] | log GI50 [6] [M] | Log GI (M) [6] [M] | log GI50 [7] [M] | Log GI (M) [7] [M] | log GI50 [8] [M] | Log GI (M) [8] [M] | log GI50 [9] [M] | Log GI (M) [9] [M] |
| --- | --- | --- | --- | --- | --- | --- | --- | --- | --- | --- | --- | --- | --- | --- | --- | --- | --- | --- |
| CC[C@H](C)[C@H](NC(=O)[C@H](CCCNC(=N)N)NC(=O)[C@H](Cc1c[nH]c2ccccc12)NC(=O)[C@@H](NC(=O)[C@H](CCCCN)NC(=O)[C@H](CCCCN)NC(=O)[C@@H](NC(=O)[C@@H](NC(=O)[C@@H](NC(=O)[C@H](CCCCN)NC(=O)[C@H](Cc1ccccc1)NC(=O)[C@H](CCCCN)NC(=O)[C@H](CCCCN)NC(=O)[C@H](Cc1ccccc1)NC(=O)[C@@H](NC(=O)[C@@H](N)CCCCN)[C@@H](C)CC)[C@@H](C)O)[C@@H](C)CC)[C@@H](C)CC)C(C)C)C(=O)N[C@@H](Cc1ccccc1)C(=O)NCC(=O)N[C@@H](CCCNC(=N)N)C(=O)N[C@@H](Cc1ccccc1)C(N)=O [AmphiArc2] (H-KIFKKFKTIIKKVWRIFGRF-NH2) | same low-micromolar range | 3.3 ± 0.2 | −5.6 | -5.57 | −5.6 | -5.64 | −5.6 | -5.65 | −5.5 | -5.50 | −5.6 | -5.60 | −5.6 | -5.65 | −5.7 | -5.67 | −5.7 | -5.72 |
| CC[C@H](C)[C@H](NC(=O)[C@H](CCCCN)NC(=O)[C@H](CCCCN)NC(=O)[C@@H](NC(=O)[C@@H](NC(=O)[C@@H](N)Cc1c[nH]cn1)[C@@H](C)CC)[C@@H](C)CC)C(=O)N[C@@H](CCCNC(=N)N)C(=O)N[C@H](C(=O)N[C@@H](Cc1c[nH]c2ccccc12)C(=O)N[C@@H](Cc1ccc(O)cc1)C(=O)N[C@@H](CCCNC(=N)N)C(=O)N[C@@H](CCCCN)C(=O)N[C@@H](C)C(=O)N[C@@H](Cc1c[nH]c2ccccc12)C(=O)N[C@@H](Cc1c[nH]cn1)C(=O)N[C@H](C(=O)N[C@@H](CC(C)C)C(=O)NCC(=O)N[C@@H](CCCCN)C(=O)N[C@H](C(N)=O)C(C)C)C(C)C)[C@@H](C)O [Off2] (H-HIIKKIRTWYRKAWHVLGKV-NH2) | – | 32 ± 3 | −5.2 | -5.24 | −5.3 | -5.33 | −5.4 | -5.37 | −5.2 | -5.17 | −5.2 | -5.17 | −5.4 | -5.36 | −5.3 | -5.28 | −5.5 | -5.46 |

Source: paper PMC6677754, “In silico design and optimization of selective membranolytic anticancer peptides” (Scientific Reports, 2019)
